Assay results as given in ChEMBL document CHEMBL4507291 (2021).

Target: T1, Activin receptor type-1B (Homo sapiens) (UniProt P36896)
T1 sequence (whole entry): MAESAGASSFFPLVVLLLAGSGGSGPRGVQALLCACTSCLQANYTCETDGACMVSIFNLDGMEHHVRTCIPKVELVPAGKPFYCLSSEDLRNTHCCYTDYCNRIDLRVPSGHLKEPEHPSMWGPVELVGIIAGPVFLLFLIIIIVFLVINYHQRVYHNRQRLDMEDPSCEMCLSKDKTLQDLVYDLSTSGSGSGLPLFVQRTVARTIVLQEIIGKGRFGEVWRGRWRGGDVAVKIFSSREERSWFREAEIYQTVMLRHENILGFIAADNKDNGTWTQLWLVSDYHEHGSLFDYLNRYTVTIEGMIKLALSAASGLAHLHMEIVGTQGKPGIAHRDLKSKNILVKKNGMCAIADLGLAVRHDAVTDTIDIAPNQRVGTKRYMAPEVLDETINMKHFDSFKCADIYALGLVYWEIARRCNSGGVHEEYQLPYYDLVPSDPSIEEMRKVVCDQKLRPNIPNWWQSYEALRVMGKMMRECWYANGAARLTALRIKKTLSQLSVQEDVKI
Test: ACVR1B (ALK4) Kinase screen
Settings: Compound concentration 1.0 uM

## C[C@@H]1CN(c2cc(-c3n[nH]c4ccc(OC5(C)CC5)cc34)ncn2)C[C@H](C)O1 [MLi-2]
  inhibition: -0.724%
